According to patent US8143282B2, “Heterocyclic compounds” (S*BIO Pte Ltd., priority 2005, dated 2012):

Tests used:
HDAC1 enzyme = target: T1, HDAC1 enzyme (Homo sapiens, UniProt Q13547); assay: In vitro HDAC assay for determination of IC50 values (BIOMOL fluorescent-based HDAC activity assay); assay type: biochemical
T1 construct: Amplification of human HDAC1 coding region from this cDNA library was cloned separately into the baculovirus expression pDEST20 vector; made in house; host or cells: SF9 insect cells, pDEST20-HDAC1 baculovirus
T1 sequence (Q13547 whole entry): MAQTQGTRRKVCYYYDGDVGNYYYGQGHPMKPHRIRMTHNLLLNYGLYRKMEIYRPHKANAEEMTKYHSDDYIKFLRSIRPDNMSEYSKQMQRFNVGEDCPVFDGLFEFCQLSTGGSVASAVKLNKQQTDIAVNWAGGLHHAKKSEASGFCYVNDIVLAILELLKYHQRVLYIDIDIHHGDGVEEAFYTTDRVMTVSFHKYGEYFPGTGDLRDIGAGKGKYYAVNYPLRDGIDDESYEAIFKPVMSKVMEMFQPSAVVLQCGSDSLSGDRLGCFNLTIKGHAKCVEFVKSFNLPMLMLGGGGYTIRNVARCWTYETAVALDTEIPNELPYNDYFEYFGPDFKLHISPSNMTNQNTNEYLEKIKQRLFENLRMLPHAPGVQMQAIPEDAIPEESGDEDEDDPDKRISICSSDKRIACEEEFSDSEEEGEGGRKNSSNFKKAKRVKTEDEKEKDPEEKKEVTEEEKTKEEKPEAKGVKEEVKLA
Method in brief: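 Recombinant GST-HDAC1, cloned from SW620 cDNA and expressed in Sf9 cells, tested in a fluorogenic Fluor de Lys deacetylase assay. Developer was added for 10 min and fluorescence read at 360/460 nm. IC50 came from concentration series.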

Colo205 cells = assay: Cell-based proliferation assay for GI50 (CyQUANT), Colo205; conditions: Homo sapiens, COLO 205, 96 h treatment, read-out: Cellular or Growth Inhibition Activity in Colo205 cells, GI50
Method in brief: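 Cells were seeded at 1000 (PC3), 5000 (Colo205), 6000 (HCT116) or 4000 (HEP3B) per well and left 24 h at 37° C. Compound treatment lasted 96 h. Growth was read by CyQUANT, and GI50 (50% growth inhibition) came from dose-response curves.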

[1] = Measurement of microsomal stability; assay type: in vitro ADME; conditions: pooled human liver microsomes, pH 7.4; human liver microsome, 5 μM test compound, 1.0 mg/ml microsomal protein
Method: Metabolic stability measurements in the in vitro using liver microsomes aids in the prediction of the in vivo hepatic clearance and the compound stability towards phase I biotransformation reactions mediated by P450 isozymes.
Pooled human liver microsome (HLM was purchased from BD Gentest (BD BioSciences). The incubations consisted of test compound (5 μM) or control compound (Verapamil), NADPH-generating system solution A (25 mM NADP^+, 66 mM glucose-6-phosphate, 66 mM MgCl2 in H2O), NADPH-generating system solution B (40 U/ml glucose-6-phosphate dehydrogenase in 5 mM sodium citrate) and 1.0 mg/ml microsomal protein, respectively, in 100 mM potassium phosphate buffer (pH 7.4). Samples were incubated for 0, 5, 15, 30, 45, 60 min. Reaction was terminated with ice-cold 80% acetonitrile and 20% DMSO. Samples were subsequently centrifuged at 4° C. for 15 min at 2,000 rpm. 100 μL of the supernatant was transferred to the LC-MS Plate for analysis. Before quantitative analysis, the compound was tuned in LC/MS machine to get the optimized MS condition. Liquid chromatography was performed on a Luna C18 column (Phenomenex U.S.A, Torrance, Calif.) (2×50 mm, 5 μM). % of the compound remaining (by area) at each time point is calculated with respect to time 0 min. Plot % remaining against time (min) to obtain the curve and use the Prism software to obtain the t1/2.

Compound | IC50 (HDAC1 enzyme) [nM] | GI50 (Colo205 cells) [nM] | half-life at 5 μM [1] [min]
CC(C)c1nc2cc(/C=C/C(=O)NO)ccc2n1CC(C)(C)CN(C)C [Compound 2, 3-[1-(3-Dimethylamino-2,2-dimethyl-propyl)-2-isopropyl-1H-benzoimidazol-5-yl]-N-hydroxy-acrylamide] | 380 | 2120 | > 30
C=CCCc1nc2cc(/C=C/C(=O)NO)ccc2n1CCN(CC)CC [Compound 11, 3-[2-But-3-enyl-1-(2-diethylamino-ethyl)-1H-benzoimidazol-5-yl]-N-hydroxy-acrylamide] | 70 | 480 | > 30
C#CCCc1nc2cc(/C=C/C(=O)NO)ccc2n1CCN(CC)CC [Compound 12, 3-[2-But-3-ynyl-1-(2-diethylamino-ethyl)-1H-benzoimidazol-5-yl]-N-hydroxy-acrylamide] | 64 | 510 | > 30
CCN(CC)CCn1c(CCC(F)(F)F)nc2cc(/C=C/C(=O)NO)ccc21 [Compound 14, 3-[1-(2-Diethylamino-ethyl)-2-(3,3,3-trifluoro-propyl)-1H-benzoimidazol-5-yl]-N-hydroxy-acrylamide] | 77 | 630 | > 30
CC(C)NCCn1c(CC(C)(C)C)nc2cc(/C=C/C(=O)NO)ccc21 [Compound 19] | 64 | 530 | > 30
CC(C)Cc1nc2cc(/C=C/C(=O)NO)ccc2n1CCNC(C)C [Compound 35, N-Hydroxy-3-[2-isobutyl-1-(2-isopropylamino-ethyl)-1H-benzoimidazol-5-yl]-acrylamide] | 82 | 660 | > 30
CCCCc1nc2cc(/C=C/C(=O)NO)ccc2n1CCN(C)C(C)C [Compound 78, 3-{2-Butyl-1-[2-(isopropyl-methyl-amino)-ethyl]-1H-benzoimidazol-5-yl}-N-hydroxy-acrylamide] | 44 | 540 | > 30
CCCCCCc1nc2cc(/C=C/C(=O)NO)ccc2n1C1CCNC1 (stereo not drawn) [Compound 80, 3-(2-Hexyl-1-pyrrolidin-3-yl-1H-benzoimidazol-5-yl)-N-hydroxy-acrylamide] | 40 | 1370 | > 30
CCCCCN(CC)CCn1cnc2cc(/C=C/C(=O)NO)ccc21 [Compound 88, 3-{1-[2-(Ethyl-pentyl-amino)-ethyl]-1H-benzoimidazol-5-yl}-N-hydroxy-acrylamide] | 47 | 550 | > 30
CCCCN(CCn1cnc2cc(/C=C/C(=O)NO)ccc21)C(C)C [Compound 108, 3-{1-[2-(Butyl-isopropyl-amino)-ethyl]-1H-benzoimidazol-5-yl}-N-hydroxy-acrylamide] | 43 | 440 | > 30
CCCCN(CCCC)CCn1c(CCC)nc2cc(/C=C/C(=O)NO)ccc21 [Compound 119, (E)-3-(1-(2-(dibutylamino)ethyl)-2-propyl-1H-benzo[d]imidazol-5-yl)-N-hydroxyacrylamide] | 180 | 770 | –
CCCN(CCC)CCn1cnc2cc(/C=C/C(=O)NO)ccc21 [Compound 120, 3-[1-(2-Dipropylamino-ethyl)-1H-benzoimidazol-5-yl]-N-hydroxy-acrylamide] | 110 | 490 | –
CC(C)CCN(CCn1cnc2cc(/C=C/C(=O)NO)ccc21)C(C)C [Compound 121, N-Hydroxy-3-(1-{2-[isopropyl-(3-methyl-butyl)-amino]-ethyl}-1H-benzoimidazol-5-yl)-acrylamide] | 79 | 490 | –
CN(CCn1cnc2cc(/C=C/C(=O)NO)ccc21)CCC(C)(C)C [Compound 122, 3-(1-{2-[(3,3-Dimethyl-butyl)-methyl-amino]-ethyl}-1H-benzoimidazol-5-yl)-N-hydroxy-acrylamide] | 37 | 150 | –
CCC(CC)CN(C)CCn1cnc2cc(/C=C/C(=O)NO)ccc21 [Compound 123, 3-(1-{2-[(2-Ethyl-butyl)-methyl-amino]-ethyl}-1H-benzoimidazol-5-yl)-N-hydroxy-acrylamide] | 27 | 150 | –
CC(C)(C)CCN(CCn1cnc2cc(/C=C/C(=O)NO)ccc21)CCC(C)(C)C [Compound 124, (E)-3-(1-(2-(bis(3,3-dimethylbutyl)amino)ethyl)-1H-benzo[d]imidazol-5-yl)-N-hydroxyacrylamide] | 85 | 540 | –
CC(C)CN(CCn1cnc2cc(/C=C/C(=O)NO)ccc21)CC(C)C [Compound 125, (E)-3-(1-(2-(diisobutylamino)ethyl)-1H-benzo[d]imidazol-5-yl)-N-hydroxyacrylamide] | 160 | 680 | –
CC(C)(C)CCNCCn1cnc2cc(/C=C/C(=O)NO)ccc21 [Compound 126, 3-{1-[2-(3,3-Dimethyl-butylamino)-ethyl]-1H-benzoimidazol-5-yl}-N-hydroxy-acrylamide] | 42 | 420 | –

The next lines start with the values.

IC50 (HDAC1 enzyme) [nM] | GI50 (Colo205 cells) [nM] | half-life at 5 μM [1] [min] | Compound
78 | 340 | – | C=CCCCN(C)CCn1cnc2cc(/C=C/C(=O)NO)ccc21 [Compound 127, N-Hydroxy-3-{1-[2-(methyl-pent-4-enyl-amino)-ethyl]-1H-benzoimidazol-5-yl}-acrylamide]
31 | 140 | – | CCCN(CCn1cnc2cc(/C=C/C(=O)NO)ccc21)CCC(C)(C)C [Compound 128, 3-(1-{2-[(3,3-Dimethyl-butyl)-propyl-amino]-ethyl}-1H-benzoimidazol-5-yl)-N-hydroxy-acrylamide]
770 | 3900 | – | CSc1nc2cc(/C=C/C(=O)NO)ccc2n1CC(C)(C)CN(C)C [Compound 129, 3-[1-(3-Dimethylamino-2,2-dimethyl-propyl)-2-methylsulfanyl-1H-benzoimidazol-5-yl]-N-hydroxy-acrylamide]
66 | 330 | – | CC(C)(C)CCNCCn1c(CC(C)(C)C)nc2cc(/C=C/C(=O)NO)ccc21 [Compound 131, 3-[1-[2-(3,3-Dimethyl-butylamino)-ethyl]-2-(2,2-dimethyl-propyl)-1H-benzoimidazol-5-yl]-N-hydroxy-acrylamide]
72 | 560 | – | CC(C)(C)CNCCn1cnc2cc(/C=C/C(=O)NO)ccc21 [Compound 133, 3-{1-[2-(2,2-Dimethyl-propylamino)-ethyl]-1H-benzoimidazol-5-yl}-N-hydroxy-acrylamide]
220 | 2300 | – | CCCN(CCn1cnc2cc(/C=C/C(=O)NO)ccc21)CC(C)(C)C [Compound 134, 3-(1-{2-[(2,2-Dimethyl-propyl)-propyl-amino]-ethyl}-1H-benzoimidazol-5-yl)-N-hydroxy-acrylamide]
74 | 260 | – | CCc1nc2cc(/C=C/C(=O)NO)ccc2n1CCNCCC(C)(C)C [Compound 135, 3-{1-[2-(3,3-Dimethyl-butylamino)-ethyl]-2-ethyl-1H-benzoimidazol-5-yl}-N-hydroxy-acrylamide]
53 | 390 | – | CCCc1nc2cc(/C=C/C(=O)NO)ccc2n1CCN(C)CCC(C)(C)C [Compound 136, 3-(1-{2-[(3,3-Dimethyl-butyl)-methyl-amino]-ethyl}-2-propyl-1H-benzoimidazol-5-yl)-N-hydroxy-acrylamide]
93 | 1970 | – | CC(C)(C)CCN(CCn1cnc2cc(/C=C/C(=O)NO)ccc21)CC(F)(F)F [Compound 137, 3-(1-{2-[(3,3-Dimethyl-butyl)-(2,2,2-trifluoro-ethyl)-amino]-ethyl}-1H-benzoimidazol-5-yl)-N-hydroxy-acrylamide]
100 | 1960 | – | CCCCN(CCn1cnc2cc(/C=C/C(=O)NO)ccc21)CC(F)(F)F [Compound 138, 3-(1-{2-[Butyl-(2,2,2-trifluoro-ethyl)-amino]-ethyl}-1H-benzoimidazol-5-yl)-N-hydroxy-acrylamide]
